Test results from article PMC5736175, “Nicotinic alpha 7 receptor agonists EVP-6124 and BMS-933043, attenuate scopolamine-induced deficits in visuo-spatial paired associates learning” (PLoS ONE, 2017).
Where “and” joins values, the source holds several entries; their conditions need not be identical. Equal values may be shown once. Entries after “also recorded” stand apart in the source; their conditions may differ. Where a name gives a salt, the structure may show the parent alone.

Test system: scopolamine-treated cynomolgus monkeys
Assay: Scopolamine-induced impairment of vsPAL task performance, treatment + scopolamine
Format: in vivo, cynomolgus monkeys (Macaca Fasicularis)
Method: Doses cited refer to the free base form of the compounds. […] All drugs were administered intramuscularly (i.m.) in a dosing volume of 0.1–0.2 ml/kg.
On days when compound testing occurred, approximately half the cohort received one dose and the remainder another dose of the same compound and therefore dose order was staggered between animals. With the exception of EVP-6124, all other compounds were tested in a single dose response study.
Cohen’s d values of >0.2, >0.5 and >0.8 are described using the conventions of small, medium, and large effects, respectively.

[1] = 0.3 mg/kg + scopolamine vs vehicle+scopolamine, eventual accuracy, 4-stimuli
[2] = Donepezil 0.03 mg/kg + Scopolamine, group MEAN of 6 animals
[3] = Donepezil 0.03 mg/kg + Scopolamine, individual animals
[4] = Donepezil 0.1 mg/kg + Scopolamine, group MEAN of 6 animals
[5] = Donepezil 0.1 mg/kg + Scopolamine, individual animals
[6] = Donepezil 0.3 mg/kg + Scopolamine, group MEAN (one animal without value)
[7] = Donepezil 0.3 mg/kg + Scopolamine, group MEAN of 6 animals
[8] = Donepezil 0.3 mg/kg + Scopolamine, individual animals
[9] = all doses of the study, for EVP-6124 study (1)
[10] = compound 0.03 mg/kg i.m. + Scopolamine
[11] = compound 0.10 mg/kg i.m. + Scopolamine
[12] = compound 0.30 mg/kg i.m. + Scopolamine

With `COc1cc2c(cc1OC)C(=O)C(CC1CCN(Cc3ccccc3)CC1)C2` (centres unmarked) [Donepezil, Donepezil hydrochloride] the “Cohen's d” value [1] was 1.2 and 1.199, the effect r [1] was 0.514 and the “effect on scopolamine-induced impairment of eventual accuracy” value (0.3 mg/kg i.m., 4-stimuli condition) was “significantly ameliorated; also recorded: significantly reversed”. For the same molecule, the “mean (cohen's d calculations)” value (0.3 mpk + scop, eventual correct, 4-stimuli condition) was 68.7, the “% Completion” value [2] was 79.4% and the “Average Response Latency” value [2] was 2339.5 ms. For the same molecule, the “Eventual Correct, 2 Stimuli” value [2] was 100.0%, the “Eventual Correct, 3 Stimuli” value [2] was 86.7% and the “Eventual Correct, 4 Stimuli” value [2] was 42.1%. For the same molecule, the “Eventual Correct, Overall Mean % Correct” value [2] was 76.2%, the “Initial Correct, 3 Stimuli” value [2] was 58.3% and the “Initial Correct, 4 Stimuli” value [2] was 16.7%. The “Initial Correct, Overall Mean % Correct” value [2] was 52.2%, the “Initial correct, 2 Stimuli” value [2] was 81.7% and the “% Completion” value [3] was 76.8% and 57.3% and 85.4% and 84.6% and 100.0% and 72.4%. For the same molecule, the “Average Response Latency” value [3] was 2796.9 ms and 1893.7 ms and 2469.8 ms and 2357.9 ms and 2353.0 ms, the “Eventual Correct, 2 Stimuli” value [3] was 100.0% and the “Eventual Correct, 3 Stimuli” value [3] was 90.0% and 80.0% and 50.0% and 100.0%. For the same molecule, the “Eventual Correct, 4 Stimuli” value [3] was 30.0% and 12.5% and 0.0% and 80.0% and 70.0% and 60.0%, the “Eventual Correct, Overall Mean % Correct” value [3] was 73.3% and 64.2% and 50.0% and 93.3% and 90.0% and 86.7% and the “Initial Correct, 3 Stimuli” value [3] was 50.0% and 70.0% and 40.0% and 60.0% and 90.0%. The “Initial Correct, 4 Stimuli” value [3] was 10.0% and 0.0% and 30.0%, the “Initial Correct, Overall Mean % Correct” value [3] was 50.0% and 56.7% and 36.7% and 46.7% and 73.3% and the “Initial correct, 2 Stimuli” value [3] was 90.0% and 100.0% and 70.0% and 60.0%. For the same molecule, the “% Completion” value [4] was 80.6%, the “Average Response Latency” value [4] was 2361.5 ms and the “Eventual Correct, 2 Stimuli” value [4] was 98.3%. The “Eventual Correct, 3 Stimuli” value [4] was 90.0%, the “Eventual Correct, 4 Stimuli” value [4] was 50.0% and the “Eventual Correct, Overall Mean % Correct” value [4] was 79.4%. For the same molecule, the “Initial Correct, 3 Stimuli” value [4] was 63.3%, the “Initial Correct, 4 Stimuli” value [4] was 30.0% and the “Initial Correct, Overall Mean % Correct” value [4] was 57.2%. The “Initial correct, 2 Stimuli” value [4] was 78.3%, the “% Completion” value [5] was 70.7% and 75.0% and 77.6% and 100.0% and 96.4% and 63.8% and the “Average Response Latency” value [5] was 2305.7 ms and 2751.0 ms and 1701.8 ms and 2272.3 ms and 2849.3 ms and 2289.1 ms. For the same molecule, the “Eventual Correct, 2 Stimuli” value [5] was 90.0% and 100.0%, the “Eventual Correct, 3 Stimuli” value [5] was 60.0% and 90.0% and 100.0% and the “Eventual Correct, 4 Stimuli” value [5] was 0.0% and 90.0% and 50.0% and 60.0%. For the same molecule, the “Eventual Correct, Overall Mean % Correct” value [5] was 50.0% and 93.3% and 80.0% and 83.3% and 86.7%, the “Initial Correct, 3 Stimuli” value [5] was 90.0% and 80.0% and 40.0% and 20.0% and 70.0% and the “Initial Correct, 4 Stimuli” value [5] was 50.0% and 30.0% and 0.0% and 40.0%. The “Initial Correct, Overall Mean % Correct” value [5] was 76.7% and 70.0% and 36.7% and 63.3% and 33.3%, the “Initial correct, 2 Stimuli” value [5] was 90.0% and 100.0% and 70.0% and 50.0% and the “Eventual Correct, 4 Stimuli” value [6] was 68.7%. The “Initial Correct, 4 Stimuli” value [6] was 28.2%, the “Average Response Latency” value [7] was 2371.0 ms and the “Eventual Correct, 2 Stimuli” value [7] was 98.3%. The “Eventual Correct, 3 Stimuli” value [7] was 85.0%, the “Eventual Correct, Overall Mean % Correct” value [7] was 84.9% and the “Initial Correct, 3 Stimuli” value [7] was 63.3%. The “Initial Correct, Overall Mean % Correct” value [7] was 58.4%, the “Initial correct, 2 Stimuli” value [7] was 80.0% and the “% Completion” value [8] was 41.3% and 69.1% and 98.4% and 98.6% and 98.3% and 61.0%. For the same molecule, the “Average Response Latency” value [8] was 2379.3 ms and 1959.4 ms and 2184.7 ms and 2330.5 ms and 2840.5 ms and 2531.9 ms, the “Eventual Correct, 2 Stimuli” value [8] was 100.0% and 90.0% and the “Eventual Correct, 3 Stimuli” value [8] was 70.0% and 90.0% and 100.0%. The “Eventual Correct, 4 Stimuli” value [8] was 60.0% and 80.0% and 90.0% and 33.3%, the “Eventual Correct, Overall Mean % Correct” value [8] was 85.0% and 83.3% and 93.3% and 90.0% and 86.7% and 71.1% and the “Initial Correct, 3 Stimuli” value [8] was 50.0% and 80.0% and 70.0% and 60.0%. For the same molecule, the “Initial Correct, 4 Stimuli” value [8] was 20.0% and 50.0% and 40.0% and 11.1%, the “Initial Correct, Overall Mean % Correct” value [8] was 50.0% and 66.7% and 53.3% and 63.3% and 50.4% and the “Initial correct, 2 Stimuli” value [8] was 50.0% and 100.0% and 80.0% and 90.0%. For the same molecule, the “Holm-Sidak Post-Hoc, Treatment+Scopolamine differs from Vehicle+Scopolamine: percent correct on initial attempt, 3-stimuli” value (all doses of the study) was “n.s”, the “Holm-Sidak Post-Hoc, Treatment+Scopolamine differs from Vehicle+Scopolamine: Choice Response Latency” value [9] was “n.s” and the “Holm-Sidak Post-Hoc, Treatment+Scopolamine differs from Vehicle+Scopolamine: Percent Task Completed” value [9] was “n.s”. The “Holm-Sidak Post-Hoc, Treatment+Scopolamine differs from Vehicle+Scopolamine: percent correct on initial attempt, 2-stimuli” value [9] was “n.s”, the “Holm-Sidak Post-Hoc, Treatment+Scopolamine differs from Vehicle+Scopolamine: percent correct on initial attempt, 4 stimuli” value [9] was “n.s” and the “Percent Correct on Initial Attempt (SEM), 2 stimuli” value (“Percent Correct … (SEM), 2 stimuli” for short) [10] was 81.7% (7.0%). The “Percent Correct on Initial Attempt (SEM), 3 stimuli” value (“Percent Correct … (SEM), 3 stimuli” for short) [10] was 58.3% (7.9%), the “Percent Correct on Initial Attempt (SEM), 4 stimuli” value (“Percent Correct … (SEM), 4 stimuli” for short) [10] was 16.7% (6.1%) and the “Percent Correct … (SEM), 2 stimuli” value [11] was 78.3% (7.5%). The “Percent Correct … (SEM), 3 stimuli” value [11] was 63.3% (11.2%), the “Percent Correct … (SEM), 4 stimuli” value [11] was 30.0% (6.8%) and the “Percent Correct … (SEM), 2 stimuli” value [12] was 80.0% (6.8%). The “Percent Correct … (SEM), 3 stimuli” value [12] was 63.3% (4.2%) and the “Percent Correct … (SEM), 4 stimuli” value [12] was 28.2% (7.2%).
